In patent US9328138B2 (priority 2011, dated 2016):

How the values were obtained:
[1] = biological target: T1, HCV genotype 1b (BK) NS3 modified enzyme with a R155K mutation (Hepatitis C virus genotype 1b, UniProt P26663, R1181K); experiment: HCV NS3 protease time-resolved fluorescence (TRF) assay, genotype 1b R155K; format: biochemical; settings: Ki 1b R155K
T1 construct: HCV genotype 1b (BK) NS3 modified enzyme
Method in brief: (§1)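 NS3/NS4A protease was pre-incubated 10 min with inhibitor in 50 mM HEPES pH 7.5, 150 mM NaCl, 15% glycerol, 0.15% Triton X-100, 10 mM DTT, 0.1% PEG 8000. TRF peptide substrate (25 nM final) was hydrolysed for 6 h at room temperature. IC50 came from four-parameter fits.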

[2] = biological target: HCV NS3 protease genotype 3a (3A-1) (Hepatitis C virus genotype 3a, UniProt Q81258); experiment: HCV NS3 protease time-resolved fluorescence (TRF) assay, genotype 3a; format: biochemical; settings: Ki 3a
Method in brief: as §1

[3] = genotype 1b (BK) NS3 R155K, single value

SMILES	Ki [1, 3] [nM]	Ki [2] [nM]	Ki ([1]; first of two values printed in the cell (not explained)) [nM]	Ki ([1]; second of two values printed in the cell (not explained)) [nM]
C=C[C@@H]1C[C@]1(NC(=O)[C@@H]1C[C@@H]2CN1C(=O)[C@H](C(C)(C)C)NC(=O)O[C@@H]1CCC[C@H]1CCCCCc1c(nc3ccccc3c1OCCCN1CCCCC1)O2)C(=O)NS(=O)(=O)C1(COC)CC1 [Example 96, (3aR,7S,10S,12R,24aR)-7-tert-butyl-N-[(1R,2S)-2-ethenyl-1-({[1-(methoxymethyl)cyclopropyl]sulfonyl}carbamoyl)cyclopropyl]-5,8-dioxo-19-[3-(piperidin-1-yl)propoxy]-1,2,3,3a,5,6,7,8,11,12,20,21,22,23,24,24a-hexadecahydro-10H-9,12-methanocyclopenta[18,19][1,10,3,6]dioxadiazacyclononadecino[11,12-b]quinoline-10-carboxamide]	0.15	0.78		
C=C[C@@H]1C[C@]1(NC(=O)[C@@H]1C[C@@H]2CN1C(=O)[C@H](C(C)(C)C)NC(=O)O[C@@H]1C[C@H]1CCCCCc1c(nc3ccccc3c1OCCCN1CC(O)(c3ccccc3)C1)O2)C(=O)NS(=O)(=O)C1(C)CC1 [Example 193, (1aR,5S,8S,10R,22aR)-5-tert-butyl-N-[(1R,2S)-2-ethenyl-1-{[(1-methylcyclopropyl)sulfonyl]carbamoyl}cyclopropyl]-17-[3-(3-hydroxy-3-phenylazetidin-1-yl)propoxy]-3,6-dioxo-1,1a,3,4,5,6,9,10,18,19,20, 21,22,22a-tetradeca hydro-8H-7,10-methanocyclopropa[18,19][1,10,3,6] dioxadiazacyclononadecino[11,12-b] quinoline-8-carboxamide]	0.16	1.5		
C=C[C@@H]1C[C@]1(NC(=O)[C@@H]1C[C@@H]2CN1C(=O)[C@H](C(C)(C)C)NC(=O)O[C@@H]1C[C@H]1CCCCCc1c(nc3cc(F)ccc3c1OCCCN1CCOCC1)O2)C(=O)NS(=O)(=O)C1(C)CC1 [Example 152, (1aR,5S,8S,10R,22aR)-5-tert-butyl-N-[(1R,2S)-2-ethenyl-1-{[(1-methylcyclopropyl)sulfonyl]carbamoyl}cyclopropyl]-14-fluoro-17-[3-(morpholin-4-yl)propoxy]-3,6-dioxo-1,1a,3,4,5,6,9, 10,18,19,20,21,22,22a-tetradecahydro-8H-7,10-methanocyclopropa[18,19] [1,10,3,6]dioxadiaza cyclononadecino[11,12-b]quinoline-8-carboxamide]	0.25	1.5		
C=C[C@@H]1C[C@]1(NC(=O)[C@@H]1C[C@@H]2CN1C(=O)[C@H](C1CCCCC1)NC(=O)O[C@@H]1C[C@H]1CCCCCc1c(nc3ccccc3c1OCCCSc1nncn1C)O2)C(=O)NS(=O)(=O)C1(C)CC1 [Example 171, (1aR,5S,8S,10R,22aR)-5-cyclohexyl-N-[(1R,2S)-2-ethenyl-1-{[(1-methylcyclopropyl)sulfonyl]carbamoyl}cyclopropyl]-17-{3-[(4-methyl-4H-1,2,4-triazol-3-yl)sulfanyl]propoxy}-3,6-dioxo-1,1a,3,4,5,6,9,10, 18,19,20,21,22,22a-tetradecahydro-8H-7,10-methanocyclopropa[18,19][1,10,3,6] dioxadiazacyclononadecino[11,12-b] quinoline-8-carboxamide]	0.099	2		
C=C[C@@H]1C[C@]1(NC(=O)[C@@H]1C[C@@H]2CN1C(=O)[C@H](C(C)(C)C)NC(=O)O[C@@H]1CCC[C@H]1CCCCCc1c(nc3ccccc3c1OCCN1CCOCC1)O2)C(=O)NS(=O)(=O)N(C)CCOC [Example 111, (3aR,7S,10S,12R,24aR)-7-tert-butyl-N-[(1R,2S)-2-ethenyl-1-{[(2-methoxyethyl)(methyl)sulfamoyl]carbamoyl}cyclopropyl]-19-[2-(morpholin-4-yl)ethoxy]-5,8-dioxo-1,2,3,3a,5,6,7,8,11,12,20,21,22,23,24,24a-hexadecahydro-10H-9,12-methano-cyclopenta[18,19][1,10,3,6] dioxadiazacyclononadecino [11,12-b] quinoline-10-carboxamide]	11	272		
C=C[C@@H]1C[C@]1(NC(=O)[C@@H]1C[C@@H]2CN1C(=O)[C@H](C1CCCC1)NC(=O)O[C@@H]1CCC[C@H]1CC/C=C/Cc1c(nc3ccccc3c1OCCCN1CCCC(C)(C)C1)O2)C(=O)NS(=O)(=O)C1CC1 [Example 92, (3aR,7S,10S,12R,21E,24aS)-7-cyclo pentyl-N-{(1R,2S)-1-[(cyclopropylsulfonyl)carbamoyl]-2-ethenylcyclopropyl}-19-[3-(3,3-dimethylpiperidin-1-yl)propoxy]-5,8-dioxo-1,2,3,3a,5,6,7,8,11,12,20,23,24,24a-tetradeca hydro-10H-9,12-methano-cyclopenta[18,19][1,10,3,6]dioxa diazacyclononadecino[11,12-b] quinoline-10-carboxamide]	1.6	19		
C=C[C@@H]1C[C@]1(NC(=O)[C@@H]1C[C@@H]2CN1C(=O)[C@H](C(C)(C)C)NC(=O)O[C@@H]1C[C@H]1CCCCCc1c(nc3ccccc3c1OCCNC(C)(C)C)O2)C(=O)NS(=O)(=O)C1(C)CC1 [Example 177, (1aR,5S,8S,10R,22aR)-5-tert-butyl-17-[2-(tert-butylamino)ethoxy]-N-[(1R,2S)-2-ethenyl-1-{[(1-methylcyclopropyl)sulfonyl]carbamoyl}cyclopropyl]-3,6-dioxo-1,1a,3,4,5,6,9,10, 18,19,20,21,22,22a-tetradeca hydro-8H-7,10-methanocyclopropa[18,19][1,10,3,6] dioxadiazacyclononadecino[11,12-b] quinoline-8-carboxamide]	0.14	1.1		
C=C[C@@H]1C[C@]1(NC(=O)[C@@H]1C[C@@H]2CN1C(=O)[C@H](C(C)(C)C)NC(=O)O[C@@H]1C[C@H]1CCCCCc1c(nc3ccccc3c1OCCCN1CCC[C@@H]1C(N)=O)O2)C(=O)NS(=O)(=O)C1(C)CC1 [Example 208, (1aR,5S,8S,10R,22aR)-5-tert-butyl-17-{3-[(2R)-2-carbamoylpyrrolidin-1-yl]propoxy}-N-[(1R,2S)-2-ethenyl-1-{[(1-methylcyclopropyl)sulfonyl]carbamoyl}cyclopropyl]-3,6-dioxo-1,1a,3,4,5,6,9,10,18,19,20,21,22,22a-tetradecahydro-8H-7,10-methanocyclopropa[18,19][1,10,3,6] dioxadiazacyclononadecino[11,12-b] quinoline-8-carboxamide]	0.11	1		
C=C[C@@H]1C[C@]1(NC(=O)[C@@H]1C[C@@H]2CN1C(=O)[C@H](C1CCCC1)NC(=O)N1CC[C@@H](C1)OCCCCCCc1c(nc3ccccc3c1OCC)O2)C(=O)NS(=O)(=O)C1CC1 [Example 33, (2R,4S,7S,13S)-7-cyclopentyl-N-{(1R,2S)-1-[(cyclopropylsulfonyl)carbamoyl]-2-ethenylcyclopropyl}-21-ethoxy-6,9-dioxo-3,4,6,7,8,9,12, 13,15,16,17,18,19,20-tetradecahydro-2H,11H-2,5:10,13-dimethano[1,14,5,7,10]dioxatriazacyclo docosino[15,16-b]quinoline-4-carboxamide]	0.32	22		
C=C[C@@H]1C[C@]1(NC(=O)[C@@H]1C[C@@H]2CN1C(=O)[C@H](C1CCCC1)NC(=O)O[C@@H]1CCC[C@H]1CC/C=C/Cc1c(nc3ccccc3c1OC(=O)C(C)C)O2)C(=O)NS(=O)(=O)C1CC1 [Example 40, (3aR,7S,10S,12R,21E,24aS)-7-cyclopentyl-10-({(1R,2S)-1-[(cyclopropylsulfonyl)carbamoyl]-2-ethenylcyclopropyl}carbamoyl)-5,8-dioxo-1,2,3,3a,5,6,7,8,11,12,20,23,24,24a-tetradecahydro-10H-9,12-methanocyclopenta[18,19][1,10,3,6]dioxadiazacyclononadecino[11,12-b]quinolin-19-yl 2-methylpropanoate]	1.3	27		
C=C[C@@H]1C[C@]1(NC(=O)[C@@H]1C[C@@H]2CN1C(=O)[C@H](C(C)(C)C)NC(=O)O[C@@H]1C[C@H]1CCCCCc1c(nc3ccccc3c1OCC1CN(C(=O)OC(C)(C)C)C1)O2)C(=O)NS(=O)(=O)C1(C)CC1 [Example 142, tert-butyl 3-({[(1aR,5S,8S,10R, 22aR)-5-tert-butyl-8-{[(1R,2S)-2-ethenyl-1-{[(1-methylcyclopropyl)sulfonyl]carbamoyl}cyclopropyl]carbamoyl}-3,6-dioxo-1,1a,3,4,5,6,9,10,18,19,20,21,22,22a-tetradeca hydro-8H-7,10-methanocyclopropa[18,19][1,10,3,6]dioxadiazacyclononadecino [11,12-b]quinolin-17-yl]oxy}methyl) azetidine-1-carboxylate]	0.7	15		
C=C[C@@H]1C[C@]1(NC(=O)[C@@H]1C[C@@H]2CN1C(=O)[C@H](C(C)(C)C)NC(=O)O[C@@H]1C[C@H]1CCCCCc1c(nc3ccccc3c1OC1CC3CCC(C1)N3C(=O)OC(C)(C)C)O2)C(=O)NS(=O)(=O)C1(C)CC1 (single isomer, unassigned) [Example 278]		740	0.86	20
C=C[C@@H]1C[C@]1(NC(=O)[C@@H]1C[C@@H]2CN1C(=O)[C@H](C(C)(C)C)NC(=O)O[C@@H]1C[C@H]1CCCCCc1c(nc3ccccc3c1OC1CCN(C)CC1)O2)C(=O)NS(=O)(=O)C1(C)CC1 [Example 210, (1aR,5S,8S,10R,22aR)-5-tert-butyl-N-[(1R,2S)-2-ethenyl-1-{[(1-methylcyclopropyl)sulfonyl]carbamoyl}cyclopropyl]-17-[(1-methylpiperidin-4-yl)oxy]-3,6-dioxo-1,1a,3,4,5,6,9,10,18,19,20,21,22,22a-tetradecahydro-8H-7,10-methanocyclopropa[18,19][1,10,3,6]dioxadiazacyclononadecino[11,12-b]quinoline-8-carboxamide]	0.046	0.29		
